Values belong to the compound of their own block, whether it stands above or below them.
Experiments:
[1] = test system: PDGF-BB-induced VSMCs; assay: MTT assay, PDGF-BB-induced VSMC proliferation; assay type: cell-based, rat; conditions: 5 μmol/L for 2 h, then PDGF-BB 25 ng/mL for 24 h
[2] = test system: VSMCs; assay: MTT cytotoxicity assay in VSMCs; assay type: cell-based, rat; conditions: 5 μmol/L, 26 h
[3] = test system: VSMCs; assay: Annexin V/PI apoptosis detection assay; assay type: cell-based, rat; conditions: 5 μmol/L, 26 h, compared with control
[4] = test system: PDGFR-β; assay: Western blot, PDGFR-β phosphorylation in PDGF-BB-induced VSMCs; assay type: cell-based, rat; conditions: 1–5 μmol/L, PDGF-BB 15 min
[5] = test system: AKT; assay: Western blot, AKT phosphorylation in PDGF-BB-induced VSMCs; assay type: cell-based, rat; conditions: 1–5 μmol/L, PDGF-BB 15 min
[6] = test system: ERK1/2; assay: Western blot, ERK1/2 phosphorylation in PDGF-BB-induced VSMCs; assay type: cell-based, rat; conditions: 1–5 μmol/L, PDGF-BB 15 min
[7] = test system: p38; assay: Western blot, p38 phosphorylation in PDGF-BB-induced VSMCs; assay type: cell-based, rat; conditions: 1–5 μmol/L, PDGF-BB 15 min
[8] = test system: STAT3; assay: Western blot, STAT3 phosphorylation in PDGF-BB-induced VSMCs; assay type: cell-based, rat; conditions: for STAT3 phosphorylation: PDGF-BB 24 h, CAB 1–5 μmol/L, stattic 1 μmol/L
[9] = test system: JAK2; assay: Western blot, JAK2 expression and phosphorylation in PDGF-BB-induced VSMCs; assay type: cell-based, rat; conditions: for PDGF-BB-induced JAK2 expression: 24 h; for PDGF-BB-induced JAK2 expression / JAK2 phosphorylation: CAB 1–5 μmol/L, stattic 1 μmol/L; for JAK2 phosphorylation: PDGF-BB 24 h
[10] = test system: SRC; assay: Western blot, SRC phosphorylation in PDGF-BB-induced VSMCs; assay type: cell-based, rat; conditions: 5 μmol/L, PDGF-BB 15 min
[11] = test system: His-STAT3; assay: His-tag pull-down assay with CAB-conjugated Sepharose 6B; assay type: binding, Mus musculus
[12] = test system: STAT3; assay: STAT3 dimerization assay and immunoprecipitation; assay type: cell-based, rat; conditions: PDGF-BB-induced VSMCs; CAB 3–5 μmol/L, AG490 20 μmol/L, stattic 1 μmol/L
[13] = test system: STAT3; assay: STAT3 nuclear translocation; assay type: cell-based, rat; conditions: PDGF-BB 15 min
[14] = test system: STAT3; assay: STAT3 dual-luciferase reporter assay; assay type: cell-based, rat; conditions: PDGF-BB 6 h
[15] = test system: CIAPIN1; assay: Western blot, CIAPIN1 expression in PDGF-BB-induced VSMCs; assay type: cell-based, rat; conditions: 24 h; CAB 1–5 μmol/L, stattic 1 μmol/L
[16] = test system: KLF4; assay: Western blot, KLF4 expression in PDGF-BB-induced VSMCs; assay type: cell-based, rat; conditions: 24 h; CAB 1–5 μmol/L, stattic 1 μmol/L
[17] = test system: SPP1; assay: Western blot, SPP1 expression in PDGF-BB-induced VSMCs; assay type: cell-based, rat; conditions: 24 h; CAB 1–5 μmol/L, stattic 1 μmol/L
[18] = test system: Ciapin1 promoter (STAT3-RE1); assay: ChIP-PCR assay, STAT3 binding to Ciapin1 promoter; assay type: cell-based, rat; conditions: CAB 2 h, then PDGF-BB 6 h
[19] = test system: rat Ciapin1 promoter; assay: Ciapin1 promoter luciferase assay; assay type: cell-based; conditions: PDGF-BB 6 h
[20] = test system: CDKN1B; assay: Western blot, CDKN1B expression in PDGF-BB-induced VSMCs; assay type: cell-based, rat; conditions: 24 h, CAB 1–5 μmol/L, stattic 1 μmol/L
[21] = test system: PDGF-BB-induced VSMCs; assay: Cell cycle progression analysis; assay type: cell-based, rat; conditions: CAB-treated versus PDGF-BB-induced VSMCs, 24 h
[22] = test system: cyclin E1; assay: Western blot, cyclin E1 expression; assay type: cell-based, rat; conditions: 1–5 μmol/L, 24 h
[23] = test system: CDK2; assay: Western blot, CDK2 expression; assay type: cell-based, rat; conditions: 1–5 μmol/L, 24 h
[24] = test system: cyclin D1; assay: Western blot, cyclin D1 expression; assay type: cell-based, rat; conditions: 1–5 μmol/L, 24 h
[25] = test system: CDK4; assay: Western blot, CDK4 expression; assay type: cell-based, rat; conditions: 1–5 μmol/L, 24 h
[26] = test system: phospho-pRb (p-pRb); assay: Western blot, phospho-pRb; assay type: cell-based, rat; conditions: 1–5 μmol/L, 24 h
[27] = test system: PCNA; assay: Western blot, PCNA expression; assay type: cell-based, rat; conditions: 1–5 μmol/L, 24 h
[28] = test system: MMP9; assay: Western blot, MMP9 expression; assay type: cell-based, rat; conditions: 1–5 μmol/L, 24 h
[29] = test system: MMP9; assay: Gelatin zymography, MMP9 activity; assay type: cell-based, rat; conditions: 1–5 μmol/L, PDGF-BB 24 h
[30] = test system: CIAPIN1; assay: CIAPIN1 nuclear accumulation; assay type: cell-based, rat; conditions: PDGF-BB-induced VSMCs, 24 h
[31] = test system: rat carotid arteries; assay: Balloon injury-induced neointima formation in rat carotid artery; assay type: in vivo, Sprague–Dawley rats; conditions: 20 mg/kg orally daily, 14 days
[32] = assay type: in vivo, Sprague–Dawley rats
[33] = biological target: STAT3 protein (amino acids 127–688) (Homo sapiens, UniProt P40763); assay: Surface plasmon resonance; assay type: binding; conditions: immobilized STAT3 (127–688 aa), 25 °C
Sequence of STAT3 protein (amino acids 127–688) (P40763 127-688): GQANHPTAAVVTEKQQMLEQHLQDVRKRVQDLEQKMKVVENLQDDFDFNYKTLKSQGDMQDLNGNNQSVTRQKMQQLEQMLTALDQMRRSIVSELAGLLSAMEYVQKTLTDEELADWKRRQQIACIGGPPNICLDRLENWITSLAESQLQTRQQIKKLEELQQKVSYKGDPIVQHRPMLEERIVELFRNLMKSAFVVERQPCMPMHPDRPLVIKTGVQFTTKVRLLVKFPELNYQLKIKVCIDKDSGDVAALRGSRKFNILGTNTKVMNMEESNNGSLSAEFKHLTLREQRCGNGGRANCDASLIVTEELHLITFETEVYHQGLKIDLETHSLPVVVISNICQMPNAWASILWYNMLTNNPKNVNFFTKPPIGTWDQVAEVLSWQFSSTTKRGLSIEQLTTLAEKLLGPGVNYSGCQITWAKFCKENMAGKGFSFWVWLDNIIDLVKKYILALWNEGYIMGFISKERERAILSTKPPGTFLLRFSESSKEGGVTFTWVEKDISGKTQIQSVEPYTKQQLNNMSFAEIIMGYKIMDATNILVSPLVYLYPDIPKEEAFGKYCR

[34] = rat serum, after 2 weeks of CAB administration

Structure (SMILES): CC(=O)Nc1ccc(C(=O)Oc2ccc3[nH]c4ccccc4c3c2)cc1 [compound 4, 9H-Carbazol-3-yl 4-acetamidobenzoate]
PDGF-BB-stimulated VSMC proliferation [1]: significantly inhibited

Structure (SMILES): Nc1ccc(C(=O)Oc2ccc3[nH]c4ccccc4c3c2)cc1 [CAB, 9H-Carbazol-3-yl 4-aminobenzoate]
cytotoxic effects in VSMCs [2]: did not induce cytotoxic effects
cell apoptosis induction [3]: no signs of cell apoptosis induction
PDGF-BB-stimulated PDGFR-β phosphorylation [4]: did not affect
PDGF-BB-stimulated AKT phosphorylation [5]: did not affect
PDGF-BB-stimulated ERK1/2 phosphorylation [6]: did not affect
PDGF-BB-stimulated p38 phosphorylation [7]: did not affect
PDGF-BB-induced STAT3 tyrosine (Tyr) 705 phosphorylation ([8]; 1–5 μmol/L, PDGF-BB 15 min): significantly inhibited
STAT3 serine (Ser) 727 phosphorylation ([8]; 1–5 μmol/L, PDGF-BB 15 min): without affecting
STAT3 phosphorylation [8]: attenuated
PDGF-BB-induced JAK2 phosphorylation ([9]; 5 μmol/L, PDGF-BB 15 min): did not inhibit
PDGF-BB-induced JAK2 expression [9]: significantly inhibited
JAK2 phosphorylation [9]: attenuated
PDGF-BB-induced SRC phosphorylation [10]: did not inhibit
binding to STAT3 with mutated SH2 residues ([11]; Ile59, Arg609, and Glu612 mutated, compared to full-length): did not bind to STAT3 strongly
pull-down of full-length STAT3 by CAB-conjugated beads ([11]; full-length His-STAT3): successfully pulled down
pull-down of STAT3 fragments lacking SH2 by CAB-conjugated beads ([11]; ΔSH2): did not pull down
STAT3 dimerization [12]: inhibited
PDGF-BB-increased STAT3 phosphorylation and nuclear translocation [13]: blocked
PDGF-BB-induced STAT3 DNA binding activity (luciferase reporter) [14]: inhibited
PDGF-BB-induced CIAPIN1 expression [15]: significantly inhibited
PDGF-BB-induced expression of KLF4 [16]: decreased
PDGF-BB-induced expression of SPP1 [17]: decreased
binding of STAT3 to the Ciapin1 promoter region (protein/DNA binding) [18]: inhibited
PDGF-BB-induced CIAPIN1 luciferase expression [19]: inhibited
CDKN1B expression [20]: dose-dependently restored
G0/G1 phase proportion [21]: increase
PDGF-BB-induced cyclin E1 expression [22]: significantly inhibited
PDGF-BB-induced CDK2 expression [23]: significantly inhibited
PDGF-BB-induced cyclin D1 expression [24]: significantly inhibited
PDGF-BB-induced CDK4 expression [25]: significantly inhibited
PDGF-BB-induced phospho-pRb (p-pRb) [26]: significantly inhibited
PDGF-BB-induced PCNA expression [27]: significantly inhibited
PDGF-BB-induced MMP9 expression [28]: significantly inhibited
MMP9 proteolytic activity [29]: significantly inhibited
CIAPIN1 nuclear accumulation [30]: significantly reduced
CIAPIN1 expression in the neointima region [31]: remarkably decreased
arterial intimal areas ([31]; BI + CAB vs BI): lower
circumference of the external elastic lamina (EEL) ([31]; BI + CAB vs BI): no differences
media area ([31]; BI + CAB vs BI): no differences
balloon injury-induced neointima formation ([31]; vs BI group): significantly attenuated
expression of PCNA in carotid arteries ([31]; vs BI group): significantly decreased
glutamic pyruvic transaminase (GPT/ALT, soluble) level [32, 34]: no alterations
glutamic-oxaloacetic transaminase 1 (GOT1/AST, soluble) level [32, 34]: no alterations
histological morphology of liver, heart, lung, and kidney ([32]; rat, 20 mg/kg orally daily): no significant changes
side effects, such as diarrhea and weight loss ([32]; rat, 20 mg/kg orally daily): did not show any side effects
cell death induction (TUNEL staining) in carotid arteries ([32]; rat, 14 days post-injury, compared with control group): no signs of cell death induction

Ka, association rate constant [33]: 1002 mol⁻¹ L⁻¹ s⁻¹
Kd, dissociation rate constant [33]: 0.009083 s⁻¹
Kd ([33]; read-out: KD, equilibrium constant): 9.07 µM
Structure (SMILES): O=[N+]([O-])c1ccc2c(c1)S(=O)(=O)C=C2 [Stattic, reference compound]
STAT3 phosphorylation [8]: significantly inhibited
PDGF-BB-induced JAK2 expression [9]: significantly inhibited
JAK2 phosphorylation [9]: significantly inhibited
STAT3 dimerization [12]: inhibitory effect
PDGF-BB-induced CIAPIN1 expression [15]: significantly inhibited
PDGF-BB-induced expression of KLF4 [16]: inhibited
PDGF-BB-induced expression of SPP1 [17]: inhibited
CDKN1B expression [20]: increased
CIAPIN1 nuclear accumulation [30]: significantly reduced

Structure (SMILES): N=C(N)Nc1ccc(C(=O)Oc2ccc3[nH]c4ccccc4c3c2)cc1 [compound 3, 9H-Carbazol-3-yl 4-guanidinobenzoate]
PDGF-BB-stimulated VSMC proliferation [1]: significantly inhibited

Structure (SMILES): O=C(Oc1ccc2[nH]c3ccccc3c2c1)c1ccc(O)cc1 [compound 2, 9H-Carbazol-3-yl 4-hydroxybenzoate]
PDGF-BB-stimulated VSMC proliferation [1]: significantly inhibited

Structure (SMILES): N#C/C(=C/c1ccc(O)c(O)c1)C(=O)NCc1ccccc1 [AG490]
STAT3 dimerization [12]: inhibitory effect

Reference: publication PMC12069901 (Acta Pharmaceutica Sinica. B, 2025)
